Test results as given in patent US20100068208A1, “Degranulation inhibitor” (priority 2005, published 2010).
Read-outs that look alike come from different tables or passages of the source.

What was measured:
TGR12 = assay type: cell-based, human; settings: for EC50: CHO-TGR12, read-out: EC50 in the calcium increasing effect on CHO-TGR12
Description: CHO/dhfr^− cells (hereinafter CHO) were incubated in α-MEM (Invitrogen) supplemented with 10% fetal calf serum. After a termination codon in the TGR12-encoding nucleotide sequence was removed, a nucleotide sequence ligated with the nucleotide sequence encoding GFP (Wako Pure Chemical) [hereinafter briefly referred to as TGR12-GFP (DNA having the nucleotide sequence represented by SEQ ID NO: 31)] was incorporated into vector plasmid pAKKO-111H (the same vector plasmid as pAKKO1.11H described in Biochim. Biophys. Acta, 1219, 251-259 (1994)) for animal cell expression, and the vector plasmid was stably expressed to establish TGR12-GFP-expressed CHO cell line (hereinafter CHO-TGR12). CHO-TGR12 was incubated in nucleic acid-free α-MEM medium (Invitrogen) containing 10% dialyzed fetal calf serum.
CHO-TGR12 was plated in a 96-well plate at a density of 30,000 cells/well. After incubation overnight, the medium was discarded and 100 μL/well of assay buffer [Hank's Balanced Salt Solution (Invitrogen), 20 mM HEPES (Dojin Chemical Laboratory) and 2.5 mM Probenecid (Sigma)] containing 4 μM Fluo3-AM (Dojin Chemical Laboratory) was added, which was then allowed to stand for an hour at 37° C. […] After the cells were washed with assay buffer, fluorescence reflecting changes in intracellular calcium levels was assayed on FLIPR (Molecular Device). Ten seconds after initiation of the assay, 50 μL of a sample was added at a rate of 50 μL/second. Fluorescence measurement was taken every 1 second during the first 60 seconds and then every 6 seconds during the next 120 seconds; the highest fluorescence intensity over a 3 minute period was taken as the maximum activity under the stimulation condition, representing the mean value of 3 wells. The EC50 values were determined using Graphpad PRISM 4 (Graphpad Software).

[1] = tested on: human mast cell line LAD 2; experiment: TGR12 ligand-dependent degranulation of LAD 2 (β-hexosaminidase release); assay type: cell-based
Description: Human mast cell line LAD 2 was incubated in StemPro-34 medium (Invitrogen) supplemented with 100 ng/mL of stem cell factor (Immuno-Biological Laboratories Co., Ltd.). […] Subsequently, Tyrode's buffer containing 50 μL of TGR12 ligand (Peptide Institute, Inc.) in various concentrations was added and incubation was continued at 37° C. for further 20 minutes to induce degranulation. The degree of degranulation was determined by assaying the β-hexosaminidase activity in the degranulation assay supernatant as given below. The supernatant was dispensed into a 96-well plate and 0.1M citrate (pH 4.5)/1 mM 4-methyl umbelliferyl-2-acetamido-2-deoxy-beta-D-glucopyranoside (Wako Pure Chemical) in 5-fold of the supernatant was added thereto, followed by incubation at 37° C. for an hour. […] The activity was then assayed using Fusion-α (Perkin-Elmer). The β-hexosaminidase activity was also shown by the activity in the supernatant obtained by centrifugation after freezing and thawing LAD 2 four times, which was made total β-hexosaminidase activity in LAD 2, and the degree of degranulation was shown as the percentage of the β-hexosaminidase activity in the LAD 2 supernatant based on the total β-hexosaminidase activity.

human TGR12 = molecular target: T1, human TGR12 (Homo sapiens, UniProt Q96LB1); experiment: Intracellular calcium increasing activity in RBL2H3-TGR12 (FLIPR); assay type: cell-based
T1 construct: expressed in transfected cells
T1 sequence (Q96LB1 1-330): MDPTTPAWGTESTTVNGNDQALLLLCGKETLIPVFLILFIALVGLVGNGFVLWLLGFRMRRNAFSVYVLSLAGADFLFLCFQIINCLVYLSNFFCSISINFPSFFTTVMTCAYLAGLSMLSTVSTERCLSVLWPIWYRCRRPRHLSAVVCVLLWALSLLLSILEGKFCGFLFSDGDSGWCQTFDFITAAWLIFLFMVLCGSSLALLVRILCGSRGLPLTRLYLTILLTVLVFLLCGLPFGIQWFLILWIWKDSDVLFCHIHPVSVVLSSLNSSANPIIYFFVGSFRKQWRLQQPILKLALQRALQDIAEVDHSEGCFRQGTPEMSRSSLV
Description: RBL-2H3 (hereinafter RBL2H3) was incubated in α-MEM (Invitrogen) supplemented with 10% fetal calf serum. Vector plasmid pcDNA3.1 for animal cell expression, in which the nucleotide sequence containing the initiation codon to the termination codon of human TGR12 (DNA having the nucleotide sequence represented by SEQ ID NO: 32) was incorporated, was stably expressed in RBL-2H3 to establish human TGR12-expressed RBL-2H3 cell line (hereinafter RBL2H3-TGR12). RBL2H3-TGR12 was incubated in α-MEM (Invitrogen) supplemented with 10% fetal calf serum and 200 μg/mL of Geneticin.
The intracellular calcium increasing activity was assayed as follows. RBL2H3 and RBL2H3-TGR12 were plated in a 96-well plate at a density of 40,000 cells/well and incubated overnight. The medium was then discarded and 100 μL/well of 4 μM Fluo3-AM (Dojin Kagaku)-containing assay buffer [Hank's Balanced Salt Solution (Invitrogen), 20 mM HEPES (Dojin Kagaku) and 2.5 mM Probenecid (Sigma)] was added. The mixture was allowed to stand for an hour at 37° C. Various TGR12 (Peptide Institute, Inc.) or calcium ionophore A23187 (Wako Pure Chemical) was diluted in 0.05% CHAPS-containing assay buffer. After the cells were washed with the assay buffer, fluorescence emitted with changes in intracellular calcium was measured using FLIPR (Molecular Device). A sample, 50 μL, was added at a rate of 50 μL/sec. 10 seconds after initiation of the assay. Fluorescence was measured every 1 second during the first 60 seconds and every 6 seconds during the next 120 seconds. The highest fluorescence intensity during 3 minutes was made the maximum activity under the stimulation conditions, which was taken as an average of 3 wells. The EC50 values were calculated using Graphpad PRISM 4 (Graphpad Software).

[2] = CHO-TGR12, 0.3 nM, highest fluorescence intensity over 3 minutes
[3] = LAD 2, read-out: EC50 in the degranulation on LAD 2

Row | Structure (SMILES) | maximum activity in the calcium increasing effect (TGR12; [2]) | maximum activity in the calcium increasing effect (TGR12; CHO-TGR12, 3 nM) | maximum activity in the calcium increasing effect (TGR12; CHO-TGR12, 30 nM) | maximum activity in the calcium increasing effect (TGR12; CHO-TGR12, 300 nM) | maximum activity in the calcium increasing effect (TGR12; CHO-TGR12, 3000 nM) | EC50 (TGR12) | EC50 [1] | stimulated degranulation (β-hexosaminidase in supernatant, % of total) ([1]; LAD 2, 3 nM) | stimulated degranulation (β-hexosaminidase in supernatant, % of total) ([1]; LAD 2, 10 nM) | stimulated degranulation (β-hexosaminidase in supernatant, % of total) ([1]; LAD 2, 30 nM) | stimulated degranulation (β-hexosaminidase in supernatant, % of total) ([1]; LAD 2, 100 nM) | stimulated degranulation (β-hexosaminidase in supernatant, % of total) ([1]; LAD 2, 300 nM) | stimulated degranulation (β-hexosaminidase in supernatant, % of total) ([1]; LAD 2, 1 μM) | maximum activity in the calcium increasing effect (human TGR12; RBL2H3-TGR12, 1 nM) | maximum activity in the calcium increasing effect (human TGR12; RBL2H3-TGR12, 10 nM) | maximum activity in the calcium increasing effect (human TGR12; RBL2H3-TGR12, 100 nM) | maximum activity in the calcium increasing effect (human TGR12; RBL2H3-TGR12, 1 μM) | maximum activity in the calcium increasing effect (human TGR12; RBL2H3-TGR12, 10 μM) | stimulated degranulation (β-hexosaminidase in supernatant, % of total) ([1]; LAD 2, 3 μM) | EC50 [1, 3]
1 | CC(C)C[C@H](NC(=O)[C@H](C)NC(=O)[C@H](Cc1c[nH]c2ccccc12)NC(=O)[C@H](CCCCN)NC(=O)[C@H](CC(N)=O)NC(=O)[C@H](Cc1c[nH]c2ccccc12)NC(=O)[C@H](CCCCN)NC(=O)[C@H](CCCCN)NC(=O)[C@H](CCCNC(=N)N)NC(=O)[C@@H](N)Cc1ccccc1)C(=O)N[C@@H](CO)C(=O)N[C@@H](CCCNC(=N)N)C(N)=O [PAMP-12, proadrenomedullin N-terminal 20 peptide (9-20)] | 255 | 1617 | 22291 | 24088 | 23743 | ~98 nM | ~13 nM | 6.3% | 30.7% | 52.1% | 65.2% | 67.7% | 69.3% | 41 | 2088 | 11110 | 12039 | 12331 |  | 
2 | CC[C@H](C)[C@H](NC(=O)CNC(=O)[C@H](CC(=O)O)NC(=O)[C@H](CO)NC(=O)[C@@H](N)Cc1c[nH]cn1)C(=O)N[C@@H](Cc1ccccc1)C(=O)N[C@H](C(=O)N[C@@H](CC(=O)O)C(=O)N[C@@H](CO)C(=O)N[C@@H](Cc1ccc(O)cc1)C(=O)N[C@@H](CO)C(=O)N[C@@H](CCCNC(=N)N)C(=O)N[C@@H](Cc1ccc(O)cc1)C(=O)N[C@@H](CCCNC(=N)N)C(=O)N[C@@H](CCCCN)C(=O)N[C@@H](CCC(N)=O)C(=O)N[C@@H](CCSC)C(=O)N[C@@H](C)C(=O)N[C@H](C(=O)N[C@@H](CCCCN)C(=O)N[C@@H](CCCCN)C(=O)N[C@@H](Cc1ccc(O)cc1)C(=O)N[C@@H](CC(C)C)C(=O)N[C@@H](C)C(=O)N[C@@H](C)C(=O)N[C@H](C(=O)N[C@@H](CC(C)C)C(N)=O)C(C)C)C(C)C)[C@@H](C)O [PACAP-27] | 48 | 58 | 939 | 23030 | 23728 | ~93 nM |  |  | 2.6% | 19.6% | 59.4% | 71.1% | 75.1% | 40 | 29 | 5300 | 11494 | 12667 | 69.1% | ~51 nM
3 | CC[C@H](C)[C@H](NC(=O)[C@H](CO)NC(=O)[C@H](CC(N)=O)NC(=O)[C@H](CC(C)C)NC(=O)[C@H](Cc1ccc(O)cc1)NC(=O)[C@H](CCCCN)NC(=O)[C@H](CCCCN)NC(=O)[C@@H](NC(=O)[C@H](C)NC(=O)[C@H](CCSC)NC(=O)[C@H](CCC(N)=O)NC(=O)[C@H](CCCCN)NC(=O)[C@H](CCCNC(=N)N)NC(=O)[C@H](CC(C)C)NC(=O)[C@H](CCCNC(=N)N)NC(=O)[C@@H](NC(=O)[C@H](Cc1ccc(O)cc1)NC(=O)[C@H](CC(N)=O)NC(=O)[C@H](CC(=O)O)NC(=O)[C@@H](NC(=O)[C@H](Cc1ccccc1)NC(=O)[C@@H](NC(=O)[C@H](C)NC(=O)[C@H](CC(=O)O)NC(=O)[C@H](CO)NC(=O)[C@@H](N)Cc1c[nH]cn1)C(C)C)[C@@H](C)O)[C@@H](C)O)C(C)C)C(=O)N[C@@H](CC(C)C)C(=O)N[C@@H](CC(N)=O)C(N)=O [VIP, vasoactive intestinal polypeptide] | 56 | 60 | 16 | 11153 | 24007 | ~305 nM |  |  | 1.5% | 4.0% | 36.7% | 63.9% | 71.7% |  |  |  |  |  | 76.1% | ~105 nM
4 | CSCC[C@H](NC(=O)[C@H](CCCNC(=N)N)NC(=O)[C@@H](N)CC(=O)O)C(=O)N1CCC[C@H]1C(=O)N[C@H]1CSSC[C@@H](C(=O)N[C@@H](CCCCN)C(=O)O)NC(=O)[C@H](CO)NC(=O)[C@H](CO)NC(=O)[C@H](Cc2ccccc2)NC(=O)[C@H]([C@@H](C)O)NC(=O)[C@H](CCCCN)NC(=O)[C@H](Cc2c[nH]c3ccccc23)NC(=O)[C@H](Cc2ccccc2)NC(=O)[C@H](Cc2ccccc2)NC(=O)[C@H](CC(N)=O)NC(=O)[C@H](CCCNC(=N)N)NC1=O [cortistatin-17] | 67 | 54 | 94 | 17914 | 23647 |  |  |  | 1.6% | 2.8% | 26.5% | 52.8% | 62.2% | −2 | 33 | 1574 | 11193 | 12762 | 58.9% | 
